Laboratory results taken from patent publication US9538782B2, “Inhibition of sensory irritation during consumption of smokeless tobacco products using a combinatorial approach” (Altria Client Services LLC, priority 2013, dated 2017).

Assays:
sensory nerve fibers = settings: isolated mouse trachea model; Kichco et al. 2007; cited from earlier work
human subjects = test: human subject study of camphor added to pouches of smokeless tobacco; format: in vivo
From the text: Nicotine, for example, is an agonist of the nicotinic acetylcholine receptors, and can produce the sensory irritation, such as burning or stinging, in the mouth or throat, as well as the gastrointestinal discomfort sometimes associated with smokeless tobacco products.

TRPV1 sensory channel = TRPV1 sensory channel (Homo sapiens, UniProt Q8NER1); test: TRPV1 activation in human tissue culture cells expressing the TRPV1 sensory channel; format: cell-based; settings: activator capsaicin or camphor applied co-incident with curcumin or 5 minutes after curcumin
Procedure: It will be further understood by those skilled in the art that active ingredients appropriate for use in the present smokeless tobacco product may function as antagonists to one or more receptors and/or channels and agonists to one or more receptors and/or channels. Compounds known to activate the TRPV1 channel were applied to human tissue culture cells expressing the TRPV1 sensory channel either co-incident with the application of curcumin or following the application of curcumin by 5 minutes. Camphor and capsaicin are both known activators of the TRPV1 channel. However, these two compounds activate the sensory channel by different mechanisms. Curcumin, on the other hand, is a potent antagonist of the TPRV1 sensory channel. When capasaicin or camphor were added to cells expressing the TRPV1 sensory channel with curcumin, TRPV1 sensory activation was inhibited.

TRPV1 sensory channel, sequence (Q8NER1 whole entry): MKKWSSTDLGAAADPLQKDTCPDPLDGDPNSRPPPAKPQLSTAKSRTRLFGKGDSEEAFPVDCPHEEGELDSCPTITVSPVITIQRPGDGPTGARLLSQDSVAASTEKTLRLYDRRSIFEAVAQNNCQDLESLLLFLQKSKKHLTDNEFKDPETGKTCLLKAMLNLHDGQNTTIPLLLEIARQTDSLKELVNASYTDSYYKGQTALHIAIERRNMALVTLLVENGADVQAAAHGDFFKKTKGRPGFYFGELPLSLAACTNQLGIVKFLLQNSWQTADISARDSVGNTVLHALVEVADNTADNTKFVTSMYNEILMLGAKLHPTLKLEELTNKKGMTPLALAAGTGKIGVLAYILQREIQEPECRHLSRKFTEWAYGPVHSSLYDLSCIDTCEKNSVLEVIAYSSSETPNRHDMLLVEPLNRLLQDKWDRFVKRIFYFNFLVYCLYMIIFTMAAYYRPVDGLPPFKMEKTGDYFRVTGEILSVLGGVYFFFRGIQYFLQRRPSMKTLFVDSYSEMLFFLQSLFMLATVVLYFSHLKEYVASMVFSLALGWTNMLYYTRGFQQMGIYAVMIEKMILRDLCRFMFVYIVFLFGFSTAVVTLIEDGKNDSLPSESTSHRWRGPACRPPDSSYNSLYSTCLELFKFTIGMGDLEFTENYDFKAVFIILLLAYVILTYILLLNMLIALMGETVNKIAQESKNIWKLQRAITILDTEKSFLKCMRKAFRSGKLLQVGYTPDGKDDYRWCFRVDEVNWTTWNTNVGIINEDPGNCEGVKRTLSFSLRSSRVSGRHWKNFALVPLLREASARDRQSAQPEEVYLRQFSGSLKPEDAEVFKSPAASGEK

SMILES	activation of sensory nerve fibers induced by nicotine (sensory nerve fibers)	sensation of burning at the pouch location and along the path of saliva that had been in contact with the pouch (human subjects)	TRPV1 sensory activation (TRPV1 sensory channel)
CC12CCC(CC1=O)C2(C)C (stereo not drawn) [camphor]	effectively inhibit	reduced the sensation of burning	–
COc1cc(/C=C/C(=O)CC(=O)/C=C/c2ccc(O)c(OC)c2)ccc1O [curcumin]	–	–	inhibited
